Data as given in ChEMBL document CHEMBL1201862, “PubChem BioAssay data set” (2004).
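48-hour exposure; five concentrations; linearly interpolated endpoints. GI50 = concentration required for 50% inhibition of growth.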 Activity calls are given as the source filed them. No stated cut-off is given here; in the data, active = GI50 up to about 1.1 µM and inactive = higher.

How the values were obtained:
Test in all cases: DTP human tumour cell line panel, 48 h
OVCAR-8 = system: OVCAR-8
SF-295 = system: SF-295
TK-10 = system: TK-10
CCRF-CEM = system: CCRF-CEM
ACHN = system: ACHN
LXFL 529 = system: LXFL 529
SK-MEL-28 = system: SK-MEL-28
SK-MEL-5 = system: SK-MEL-5
LOX IMVI = system: LOX IMVI
UACC-257 = system: UACC-257
DMS-114 = system: DMS-114
SNB-75 = system: SNB-75
SK-MEL-2 = system: SK-MEL-2
HL-60 = system: HL-60
HOP-62 = system: HOP-62
HCT-116 = system: HCT-116
786-0 = system: 786-0
RXF 393 = system: RXF 393
SF-539 = system: SF-539
KM-20L2 = system: KM-20L2
DMS-273 = system: DMS-273
M19-MEL = system: M19-MEL
MOLT-4 = system: MOLT-4
NCI-H522 = system: NCI-H522
KM12 = system: KM12
U-251 = system: U-251
SF-268 = system: SF-268
A498 = system: A498
OVCAR-5 = system: OVCAR-5
HOP-18 = system: HOP-18
HOP-92 = system: HOP-92
HCC 2998 = system: HCC 2998
Malme-3M = system: Malme-3M
SW-620 = system: SW-620
SNB-78 = system: SNB-78
A549 = system: A549
NCI-H460 = system: NCI-H460
OVCAR-3 = system: OVCAR-3
COLO 205 = system: COLO 205
EKVX = system: EKVX
K562 = system: K562
SNB-19 = system: SNB-19
IGROV-1 = system: IGROV-1
SK-OV-3 = system: SK-OV-3
UO-31 = system: UO-31
DLD-1 = system: DLD-1
RPMI-8226 = system: RPMI-8226
NCI-H23 = system: NCI-H23
HT-29 = system: HT-29
XF498 = system: XF498
OVCAR-4 = system: OVCAR-4
BT-549 = system: BT-549
MDA-N = system: MDA-N
SN12C = system: SN12C
SR = system: SR
HCT-15 = system: HCT-15
CAKI-1 = system: CAKI-1
UACC-62 = system: UACC-62
DU-145 = system: DU-145
NCI/ADR-RES = system: NCI/ADR-RES
MCF7 = system: MCF7
M14 = system: M14
MDA-MB-231 = system: MDA-MB-231
Hs-578T = system: Hs-578T
NCI-H226 = system: NCI-H226
MDA-MB-435 = system: MDA-MB-435
PC-3 = system: PC-3

For `CCOC(=O)CCC1(C(=O)OC)CCCC1=O` (configuration not stated), the GI50 (OVCAR-8) was > 100 µM (inactive), the GI50 (SF-295) was > 100 µM (inactive) and the GI50 (TK-10) was > 100 µM (inactive). The GI50 (CCRF-CEM) was > 10 µM (inactive), the GI50 (ACHN) was > 100 µM (inactive) and the GI50 (LXFL 529) was > 100 µM (inactive). The GI50 (SK-MEL-28) was > 100 µM (inactive), the GI50 (SK-MEL-5) was > 100 µM (inactive) and the GI50 (LOX IMVI) was > 100 µM (inactive). For the same molecule, the GI50 (UACC-257) was > 100 µM (inactive), the GI50 (DMS-114) was > 100 µM (inactive) and the GI50 (SNB-75) was > 100 µM (inactive). The GI50 (SK-MEL-2) was > 100 µM (inactive), the GI50 (HL-60) was > 100 µM (inactive) and the GI50 (HOP-62) was > 100 µM (inactive). The GI50 (HCT-116) was > 100 µM (inactive), the GI50 (786-0) was > 100 µM (inactive) and the GI50 (RXF 393) was > 100 µM (inactive). The GI50 (SF-539) was > 100 µM (inactive), the GI50 (KM-20L2) was > 100 µM (inactive) and the GI50 (DMS-273) was > 100 µM (inactive). The GI50 (M19-MEL) was > 100 µM (inactive), the GI50 (MOLT-4) was > 100 µM (inactive) and the GI50 (NCI-H522) was > 100 µM (inactive). The GI50 (KM12) was > 100 µM (inactive), the GI50 (U-251) was > 100 µM (inactive) and the GI50 (SF-268) was > 100 µM (inactive). For the same molecule, the GI50 (A498) was > 100 µM (inactive), the GI50 (OVCAR-5) was > 100 µM (inactive) and the GI50 (HOP-18) was 62.2 µM (inactive). The GI50 (HOP-92) was > 100 µM (inactive), the GI50 (HCC 2998) was > 100 µM (inactive) and the GI50 (Malme-3M) was > 100 µM (inactive). For the same molecule, the GI50 (SW-620) was > 100 µM (inactive), the GI50 (SNB-78) was > 100 µM (inactive) and the GI50 (A549) was > 100 µM (inactive). The GI50 (NCI-H460) was > 100 µM (inactive), the GI50 (OVCAR-3) was > 100 µM (inactive) and the GI50 (COLO 205) was > 100 µM (inactive). For the same molecule, the GI50 (EKVX) was > 100 µM (inactive), the GI50 (K562) was > 100 µM (inactive) and the GI50 (SNB-19) was > 100 µM (inactive). The GI50 (IGROV-1) was > 100 µM (inactive), the GI50 (SK-OV-3) was > 100 µM (inactive) and the GI50 (UO-31) was > 100 µM (inactive). For the same molecule, the GI50 (DLD-1) was > 100 µM (inactive), the GI50 (RPMI-8226) was > 100 µM (inactive) and the GI50 (NCI-H23) was > 100 µM (inactive). For the same molecule, the GI50 (HT-29) was > 100 µM (inactive) and the GI50 (XF498) was > 100 µM (inactive).
In the case of `CCCCCCCCCCCCCCCC(=O)OCC1OC(OC)C(NC(=O)N(CCCl)N=O)C(O)C1O` (configuration not stated), the GI50 (OVCAR-8) is reported as 15.5 µM (inactive), the GI50 (OVCAR-4) is reported as 20 µM (inactive) and the GI50 (SF-295) is reported as 4.48 µM (inactive). The GI50 (TK-10) was 22.8 µM (inactive), the GI50 (CCRF-CEM) was 7.36 µM (inactive) and the GI50 (ACHN) was 13.4 µM (inactive). For the same molecule, the GI50 (LXFL 529) was 16.3 µM (inactive), the GI50 (BT-549) was 28.3 µM (inactive) and the GI50 (SK-MEL-28) was 28.5 µM (inactive). For the same molecule, the GI50 (SK-MEL-5) was 21.1 µM (inactive), the GI50 (MDA-N) was 15.1 µM (inactive) and the GI50 (LOX IMVI) was 2.36 µM (inactive). The GI50 (SN12C) was 13.4 µM (inactive), the GI50 (UACC-257) was 19.7 µM (inactive) and the GI50 (DMS-114) was 13.2 µM (inactive). For the same molecule, the GI50 (SNB-75) was 7 µM (inactive), the GI50 (SR) was 0.851 µM (active) and the GI50 (HCT-15) was 13.1 µM. For the same molecule, the GI50 (SK-MEL-2) was 17.7 µM (inactive), the GI50 (HL-60) was 4.57 µM (inactive) and the GI50 (HOP-62) was 8.04 µM (inactive). For the same molecule, the GI50 (HCT-116) was 13 µM (inactive), the GI50 (786-0) was 2.01 µM (inactive) and the GI50 (RXF 393) was 16.7 µM (inactive). The GI50 (CAKI-1) was 14.5 µM (inactive), the GI50 (SF-539) was 3.32 µM (inactive) and the GI50 (KM-20L2) was 20.3 µM (inactive). For the same molecule, the GI50 (DMS-273) was 10.2 µM (inactive), the GI50 (M19-MEL) was 22.5 µM (inactive) and the GI50 (MOLT-4) was 6.32 µM (inactive). The GI50 (NCI-H522) was 15.9 µM (inactive), the GI50 (KM12) was 19 µM (inactive) and the GI50 (UACC-62) was 2.02 µM (inactive). The GI50 (U-251) was 8.38 µM (inactive), the GI50 (SF-268) was 3.34 µM (inactive) and the GI50 (A498) was 29.6 µM (inactive). For the same molecule, the GI50 (OVCAR-5) was 35 µM (inactive), the GI50 (HOP-18) was 32.4 µM (inactive) and the GI50 (HOP-92) was 17.4 µM (inactive). The GI50 (DU-145) was 19.5 µM (inactive), the GI50 (NCI/ADR-RES) was 13.9 µM (inactive) and the GI50 (HCC 2998) was 18.4 µM (inactive). For the same molecule, the GI50 (Malme-3M) was 20.9 µM (inactive), the GI50 (SW-620) was 9.48 µM (inactive) and the GI50 (MCF7) was 45.4 µM (inactive). For the same molecule, the GI50 (SNB-78) was 24.5 µM (inactive), the GI50 (A549) was 9.68 µM (inactive) and the GI50 (M14) was 16.8 µM (inactive). For the same molecule, the GI50 (NCI-H460) was 5.61 µM (inactive), the GI50 (MDA-MB-231) was 17.9 µM (inactive) and the GI50 (OVCAR-3) was 19.6 µM (inactive). For the same molecule, the GI50 (COLO 205) was 19.2 µM (inactive), the GI50 (EKVX) was 31.2 µM (inactive) and the GI50 (K562) was 10.7 µM (inactive). The GI50 (SNB-19) was 14.8 µM (inactive), the GI50 (Hs-578T) was 23 µM (inactive) and the GI50 (IGROV-1) was 18.1 µM (inactive). The GI50 (SK-OV-3) was 21.8 µM (inactive), the GI50 (UO-31) was 24 µM (inactive) and the GI50 (NCI-H226) was 15.5 µM (inactive). The GI50 (MDA-MB-435) was 16.7 µM (inactive), the GI50 (DLD-1) was 14.7 µM (inactive) and the GI50 (RPMI-8226) was 21.3 µM (inactive). The GI50 (NCI-H23) was 11.5 µM (inactive), the GI50 (HT-29) was 14.5 µM (inactive) and the GI50 (XF498) was 7.66 µM (inactive). The GI50 (PC-3) was 15.7 µM (inactive).
For `Cn1c(=O)oc2cc(C3CCC(=O)N3Cc3ccc(Cl)cc3)ccc21` (configuration not stated), the GI50 (OVCAR-8) was > 100 µM (inactive), the GI50 (OVCAR-4) was > 100 µM (inactive) and the GI50 (SF-295) was > 100 µM (inactive). The GI50 (TK-10) was > 100 µM (inactive), the GI50 (CCRF-CEM) was > 100 µM (inactive) and the GI50 (ACHN) was > 100 µM (inactive). For the same molecule, the GI50 (LXFL 529) was > 100 µM (inactive), the GI50 (SK-MEL-28) was > 100 µM (inactive) and the GI50 (SK-MEL-5) was > 100 µM (inactive). The GI50 (LOX IMVI) was > 100 µM (inactive), the GI50 (SN12C) was > 100 µM (inactive) and the GI50 (UACC-257) was > 100 µM (inactive). For the same molecule, the GI50 (DMS-114) was > 100 µM (inactive), the GI50 (SNB-75) was 47.9 µM (inactive) and the GI50 (SR) was > 100 µM (inactive). The GI50 (HCT-15) was > 100 µM, the GI50 (SK-MEL-2) was > 100 µM (inactive) and the GI50 (HL-60) was > 100 µM (inactive). For the same molecule, the GI50 (HOP-62) was > 100 µM (inactive), the GI50 (HCT-116) was > 100 µM (inactive) and the GI50 (786-0) was > 100 µM (inactive). For the same molecule, the GI50 (RXF 393) was 29.6 µM (inactive), the GI50 (CAKI-1) was > 100 µM (inactive) and the GI50 (SF-539) was > 100 µM (inactive). For the same molecule, the GI50 (KM-20L2) was > 100 µM (inactive), the GI50 (DMS-273) was > 100 µM (inactive) and the GI50 (M19-MEL) was > 100 µM (inactive). The GI50 (MOLT-4) was > 100 µM (inactive), the GI50 (NCI-H522) was > 100 µM (inactive) and the GI50 (KM12) was > 100 µM (inactive). The GI50 (UACC-62) was > 100 µM (inactive), the GI50 (U-251) was > 100 µM (inactive) and the GI50 (SF-268) was > 100 µM (inactive). The GI50 (OVCAR-5) was > 100 µM (inactive), the GI50 (HOP-18) was > 100 µM (inactive) and the GI50 (HCC 2998) was > 100 µM (inactive). The GI50 (Malme-3M) was > 100 µM (inactive), the GI50 (SW-620) was > 100 µM (inactive) and the GI50 (SNB-78) was > 100 µM (inactive). For the same molecule, the GI50 (A549) was > 100 µM (inactive), the GI50 (M14) was > 100 µM (inactive) and the GI50 (NCI-H460) was > 100 µM (inactive). The GI50 (COLO 205) was > 100 µM (inactive), the GI50 (EKVX) was > 100 µM (inactive) and the GI50 (K562) was > 100 µM (inactive). For the same molecule, the GI50 (SNB-19) was > 100 µM (inactive), the GI50 (IGROV-1) was > 100 µM (inactive) and the GI50 (SK-OV-3) was 93.3 µM (inactive). The GI50 (UO-31) was > 100 µM (inactive), the GI50 (NCI-H226) was > 100 µM (inactive) and the GI50 (DLD-1) was 92 µM (inactive). The GI50 (RPMI-8226) was > 100 µM (inactive), the GI50 (NCI-H23) was > 100 µM (inactive) and the GI50 (HT-29) was > 100 µM (inactive). For the same molecule, the GI50 (XF498) was > 100 µM (inactive).
